Reference: article PMC12298351, “Novel 3,19-(N-Phenyl-3-(4-fluorophenyl)-pyrazole) Acetal of Andrographolide Promotes Cell Cycle Arrest and Apoptosis in MDA-MB-231 Breast Cancer Cells” (Pharmaceuticals, 2025)

Key:
HCT-15 = conditions: HCT-15, Colon; for CC50: read-out: 50% lethal concentration (LC50)
NCI-H23 = conditions: for Total growth inhibition (TGI) / CC50: NCI-H23, Non-Small Cell Lung; for GI50: NCI-H23, Non-Small-Cell Lung; for CC50: read-out: 50% lethal concentration (LC50)
RXF 393 = conditions: RXF 393, Renal; for CC50: read-out: 50% lethal concentration (LC50)
SK-MEL-2 = conditions: SK-MEL-2, Melanoma
T-47D = conditions: for GI50 / Total growth inhibition (TGI): Breast; for CC50: read-out: 50% lethal concentration (LC50), Breast
MOLT-4 = conditions: MOLT-4, Leukemia; for CC50: read-out: 50% lethal concentration (LC50)
TK-10 = format: cell-based; conditions: TK-10, Renal
EKVX = conditions: for Total growth inhibition (TGI): Non-Small Cell Lung; for GI50: Non-Small-Cell Lung; for CC50: read-out: 50% lethal concentration (LC50), Non-Small Cell Lung
HCT-116 = format: cell-based; conditions: HCT-116, Colon
SF-539 = conditions: SF-539, CNS; for CC50: read-out: 50% lethal concentration (LC50)
OVCAR-3 = conditions: OVCAR-3, Ovarian; for CC50: read-out: 50% lethal concentration (LC50)
OVCAR-8 = conditions: OVCAR-8, Ovarian; for CC50: read-out: 50% lethal concentration (LC50)
M14 = format: cell-based; conditions: M14, Melanoma
HCC-2998 = conditions: HCC-2998, Colon
HL-60(TB) = conditions: for GI50 / Total growth inhibition (TGI): Leukemia; for CC50: read-out: 50% lethal concentration (LC50), Leukemia
NCI-H522 = conditions: for Total growth inhibition (TGI) / CC50: NCI-H522, Non-Small Cell Lung; for GI50: NCI-H522, Non-Small-Cell Lung; for CC50: read-out: 50% lethal concentration (LC50)
A498 = conditions: A498, Renal; for CC50: read-out: 50% lethal concentration (LC50)
U251 = conditions: U251, CNS
SR = conditions: for GI50 / Total growth inhibition (TGI): Leukemia; for CC50: read-out: 50% lethal concentration (LC50), Leukemia
SF-295 = conditions: SF-295, CNS; for CC50: read-out: 50% lethal concentration (LC50)
UACC-62 = conditions: UACC-62, Melanoma; for CC50: read-out: 50% lethal concentration (LC50)
PC-3 = conditions: PC-3, Prostate; for CC50: read-out: 50% lethal concentration (LC50)
OVCAR-4 = format: cell-based; conditions: OVCAR-4, Ovarian
MDA-MB-435 = conditions: MDA-MB-435, Melanoma; for CC50: read-out: 50% lethal concentration (LC50)
HOP-62 = conditions: for Total growth inhibition (TGI) / CC50: HOP-62, Non-Small Cell Lung; for GI50: HOP-62, Non-Small-Cell Lung; for CC50: read-out: 50% lethal concentration (LC50)
RPMI-8226 = conditions: RPMI-8226, Leukemia; for CC50: read-out: 50% lethal concentration (LC50)
[1] = DPPH radical scavenging assay; conditions: 25 µM test compound, 0.1 mM DPPH, acetonitrile, 30 min
Method in brief: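 Compounds at 25 µM in acetonitrile mixed 1:2 with 0.1 mM DPPH in acetonitrile, kept 30 min in the dark at room temperature. Absorbance read at 517 nm; % scavenging = (Ac − As)/Ac × 100, Ac being DPPH blank. Ascorbic acid positive control.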

CCRF-CEM = conditions: for GI50 / Total growth inhibition (TGI): Leukemia; for CC50: read-out: 50% lethal concentration (LC50), Leukemia

Compound: C=C1CCC2C3(C)COC(c4cn(-c5ccccc5)nc4-c4ccc(C)cc4)OC3CCC2(C)C1CC=C1C(=O)OCC1O (stereo not drawn) [1i]
- GI50 (HCT-15): 1.59 µM
- Total growth inhibition (TGI) (HCT-15): 3.19 µM
- CC50 (HCT-15): 6.38 µM
- Total growth inhibition (TGI) (NCI-H23): 3.5 µM
- GI50 (NCI-H23): 1.76 µM
- CC50 (NCI-H23): 6.96 µM
- GI50 (RXF 393): 1.49 µM
- Total growth inhibition (TGI) (RXF 393): 2.97 µM
- CC50 (RXF 393): 5.92 µM
- GI50 (SK-MEL-2): 1.79 µM
- Total growth inhibition (TGI) (SK-MEL-2): 3.28 µM
- GI50 (T-47D): 1.14 µM
- Total growth inhibition (TGI) (T-47D): 3.55 µM
- CC50 (T-47D): > 100 µM
- GI50 (MOLT-4): 2.11 µM
- Total growth inhibition (TGI) (MOLT-4): > 100 µM
- CC50 (MOLT-4): > 100 µM
- GI50 (TK-10): 1.33 µM
- Total growth inhibition (TGI) (EKVX): 4.96 µM
- GI50 (EKVX): 2.13 µM
- CC50 (EKVX): > 100 µM
- GI50 (HCT-116): 3.91 µM
- Total growth inhibition (TGI) (HCT-116): 1.52 µM
- GI50 (SF-539): 1.79 µM
- Total growth inhibition (TGI) (SF-539): 3.19 µM
- CC50 (SF-539): 5.7 µM
- GI50 (OVCAR-3): 1.95 µM
- Total growth inhibition (TGI) (OVCAR-3): 3.82 µM
- CC50 (OVCAR-3): 7.49 µM
- GI50 (OVCAR-8): 1.67 µM
- Total growth inhibition (TGI) (OVCAR-8): 3.51 µM
- CC50 (OVCAR-8): 7.37 µM
- GI50 (M14): 1.76 µM
- Total growth inhibition (TGI) (M14): 3.61 µM
- GI50 (HCC-2998): 1.63 µM
- Total growth inhibition (TGI) (HCC-2998): 3.06 µM
- GI50 (HL-60(TB)): 2.17 µM
- Total growth inhibition (TGI) (HL-60(TB)): > 100 µM
- CC50 (HL-60(TB)): > 100 µM
- Total growth inhibition (TGI) (NCI-H522): 3.46 µM
- GI50 (NCI-H522): 1.75 µM
- CC50 (NCI-H522): 6.86 µM
- GI50 (A498): 4.03 µM
- Total growth inhibition (TGI) (A498): 15.8 µM
- CC50 (A498): 48.8 µM
- GI50 (U251): 2.61 µM
- Total growth inhibition (TGI) (U251): 3.12 µM
- GI50 (SR): 2.74 µM
- Total growth inhibition (TGI) (SR): > 100 µM
- CC50 (SR): > 100 µM
- GI50 (SF-295): 1.58 µM
- Total growth inhibition (TGI) (SF-295): 2.96 µM
- CC50 (SF-295): 5.54 µM
- GI50 (UACC-62): 1.64 µM
- Total growth inhibition (TGI) (UACC-62): 3.15 µM
- CC50 (UACC-62): 6.04 µM
- GI50 (PC-3): 1.92 µM
- CC50 (PC-3): > 100 µM
- GI50 (OVCAR-4): 1.92 µM
- Total growth inhibition (TGI) (OVCAR-4): 4.27 µM
- GI50 (MDA-MB-435): 1.61 µM
- Total growth inhibition (TGI) (MDA-MB-435): 3.31 µM
- CC50 (MDA-MB-435): 6.79 µM
- Total growth inhibition (TGI) (HOP-62): 4.44 µM
- GI50 (HOP-62): 2.12 µM
- CC50 (HOP-62): 9.27 µM
- GI50 (RPMI-8226): 8.6 µM
- Total growth inhibition (TGI) (RPMI-8226): > 100 µM
- CC50 (RPMI-8226): > 100 µM
- % DPPH radical scavenging activity [1]: 56.31%
- GI50 (CCRF-CEM): 8.4 µM
- Total growth inhibition (TGI) (CCRF-CEM): > 100 µM
- CC50 (CCRF-CEM): > 100 µM

Compound: C=C1CCC2C3(C)COC(c4cn(-c5ccccc5)nc4-c4cccc(F)c4)OC3CCC2(C)C1CC=C1C(=O)OCC1O (stereo not drawn) [1c]
- GI50 (HCT-15): 1.57 µM
- Total growth inhibition (TGI) (HCT-15): 3.18 µM
- CC50 (HCT-15): 6.45 µM
- Total growth inhibition (TGI) (NCI-H23): 3.57 µM
- GI50 (NCI-H23): 1.79 µM
- CC50 (NCI-H23): 7.09 µM
- GI50 (RXF 393): 1.64 µM
- Total growth inhibition (TGI) (RXF 393): 3.12 µM
- CC50 (RXF 393): 5.94 µM
- GI50 (SK-MEL-2): 1.79 µM
- Total growth inhibition (TGI) (SK-MEL-2): 3.29 µM
- GI50 (T-47D): 1.39 µM
- Total growth inhibition (TGI) (T-47D): 4.07 µM
- CC50 (T-47D): > 100 µM
- GI50 (MOLT-4): 0.69 µM
- CC50 (MOLT-4): > 100 µM
- GI50 (TK-10): 1.41 µM
- Total growth inhibition (TGI) (EKVX): 5.17 µM
- GI50 (EKVX): 2.21 µM
- CC50 (EKVX): 56 µM
- GI50 (HCT-116): 3.48 µM
- Total growth inhibition (TGI) (HCT-116): 1.59 µM
- GI50 (SF-539): 1.77 µM
- Total growth inhibition (TGI) (SF-539): 3.17 µM
- CC50 (SF-539): 5.68 µM
- GI50 (OVCAR-3): 1.95 µM
- Total growth inhibition (TGI) (OVCAR-3): 3.68 µM
- CC50 (OVCAR-3): 6.94 µM
- GI50 (OVCAR-8): 1.77 µM
- Total growth inhibition (TGI) (OVCAR-8): 3.88 µM
- CC50 (OVCAR-8): 8.5 µM
- GI50 (M14): 1.75 µM
- Total growth inhibition (TGI) (M14): 3.59 µM
- GI50 (HCC-2998): 1.73 µM
- Total growth inhibition (TGI) (HCC-2998): 3.2 µM
- GI50 (HL-60(TB)): 0.76 µM
- Total growth inhibition (TGI) (HL-60(TB)): > 100 µM
- CC50 (HL-60(TB)): > 100 µM
- Total growth inhibition (TGI) (NCI-H522): 3.08 µM
- GI50 (NCI-H522): 1.52 µM
- CC50 (NCI-H522): 6.24 µM
- GI50 (A498): 4.13 µM
- Total growth inhibition (TGI) (A498): 18.4 µM
- CC50 (A498): 53.3 µM
- GI50 (U251): 1.81 µM
- Total growth inhibition (TGI) (U251): 5.61 µM
- GI50 (SR): 2.2 µM
- Total growth inhibition (TGI) (SR): > 100 µM
- CC50 (SR): > 100 µM
- GI50 (SF-295): 1.52 µM
- Total growth inhibition (TGI) (SF-295): 2.88 µM
- CC50 (SF-295): 5.49 µM
- GI50 (UACC-62): 1.65 µM
- Total growth inhibition (TGI) (UACC-62): 3.21 µM
- CC50 (UACC-62): 6.22 µM
- GI50 (PC-3): 1.97 µM
- Total growth inhibition (TGI) (PC-3): 4.56 µM
- CC50 (PC-3): > 100 µM
- GI50 (OVCAR-4): 1.74 µM
- Total growth inhibition (TGI) (OVCAR-4): 4.27 µM
- CC50 (OVCAR-4; read-out: 50% lethal concentration (LC50)): > 100 µM
- GI50 (MDA-MB-435): 1.5 µM
- Total growth inhibition (TGI) (MDA-MB-435): 3.08 µM
- CC50 (MDA-MB-435): 6.32 µM
- Total growth inhibition (TGI) (HOP-62): 3.86 µM
- GI50 (HOP-62): 1.74 µM
- CC50 (HOP-62): 8.55 µM
- GI50 (RPMI-8226): 2.63 µM
- Total growth inhibition (TGI) (RPMI-8226): > 100 µM
- CC50 (RPMI-8226): > 100 µM
- % DPPH radical scavenging activity [1]: 58.33%
- GI50 (CCRF-CEM): 2.06 µM
- Total growth inhibition (TGI) (CCRF-CEM): > 100 µM
- CC50 (CCRF-CEM): > 100 µM
